According to US20240024488A1, “COMPOUNDS AND USES THEREOF” (Foghorn Therapeutics Inc., priority 2020, published 2024):

What was measured:
[1] = molecular target: T1, HiBit-BRG1 fusion protein (Homo sapiens, UniProt P51532); test: HiBiT-BRG1 cell-based degradation assay (Nano-Glo HiBiT Lytic Detection, 24 h); details: HeLa cell line expressing HiBit-BRG1 and LgBit; for Dmax: read-out: BRG1 HiBit Degradation Maximum (%); for DC50: read-out: BRMG1 HiBit Degradation IC50
T1 construct: expressed in transfected cells
In short: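 Seed 5000 HeLa HiBit-BRG1/LgBit cells per well; treat 24 h; equilibrate 15 min at room temperature; add Nano-Glo HiBiT lytic reagent, shake 10 min, read luminescence. Percent degradation is scaled between DMSO and 2 μM reference degrader wells.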

HiBit-BRM fusion protein = molecular target: T2, HiBit-BRM fusion protein (Homo sapiens, UniProt P51531); test: HiBiT-BRM cell-based degradation assay (Nano-Glo HiBiT Lytic Detection, 24 h); details: HeLa cell line expressing HiBiT-BRM; for DC50: read-out: BRM HiBit Degradation IC50
T2 construct: expressed in transfected cells
In short: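 HeLa cells stably expressing HiBiT-BRM were treated for 24 h with compounds (10-point 3-fold dilutions, 30 μM final top dose, in duplicate). HiBiT was detected by lytic LgBiT complementation luminescence. % degradation was normalized to DMSO (high control) and 2 μM of a reference BRM/BRG1 degrader (low control).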

T1 sequence (P51532 whole entry, the tested form may be a part): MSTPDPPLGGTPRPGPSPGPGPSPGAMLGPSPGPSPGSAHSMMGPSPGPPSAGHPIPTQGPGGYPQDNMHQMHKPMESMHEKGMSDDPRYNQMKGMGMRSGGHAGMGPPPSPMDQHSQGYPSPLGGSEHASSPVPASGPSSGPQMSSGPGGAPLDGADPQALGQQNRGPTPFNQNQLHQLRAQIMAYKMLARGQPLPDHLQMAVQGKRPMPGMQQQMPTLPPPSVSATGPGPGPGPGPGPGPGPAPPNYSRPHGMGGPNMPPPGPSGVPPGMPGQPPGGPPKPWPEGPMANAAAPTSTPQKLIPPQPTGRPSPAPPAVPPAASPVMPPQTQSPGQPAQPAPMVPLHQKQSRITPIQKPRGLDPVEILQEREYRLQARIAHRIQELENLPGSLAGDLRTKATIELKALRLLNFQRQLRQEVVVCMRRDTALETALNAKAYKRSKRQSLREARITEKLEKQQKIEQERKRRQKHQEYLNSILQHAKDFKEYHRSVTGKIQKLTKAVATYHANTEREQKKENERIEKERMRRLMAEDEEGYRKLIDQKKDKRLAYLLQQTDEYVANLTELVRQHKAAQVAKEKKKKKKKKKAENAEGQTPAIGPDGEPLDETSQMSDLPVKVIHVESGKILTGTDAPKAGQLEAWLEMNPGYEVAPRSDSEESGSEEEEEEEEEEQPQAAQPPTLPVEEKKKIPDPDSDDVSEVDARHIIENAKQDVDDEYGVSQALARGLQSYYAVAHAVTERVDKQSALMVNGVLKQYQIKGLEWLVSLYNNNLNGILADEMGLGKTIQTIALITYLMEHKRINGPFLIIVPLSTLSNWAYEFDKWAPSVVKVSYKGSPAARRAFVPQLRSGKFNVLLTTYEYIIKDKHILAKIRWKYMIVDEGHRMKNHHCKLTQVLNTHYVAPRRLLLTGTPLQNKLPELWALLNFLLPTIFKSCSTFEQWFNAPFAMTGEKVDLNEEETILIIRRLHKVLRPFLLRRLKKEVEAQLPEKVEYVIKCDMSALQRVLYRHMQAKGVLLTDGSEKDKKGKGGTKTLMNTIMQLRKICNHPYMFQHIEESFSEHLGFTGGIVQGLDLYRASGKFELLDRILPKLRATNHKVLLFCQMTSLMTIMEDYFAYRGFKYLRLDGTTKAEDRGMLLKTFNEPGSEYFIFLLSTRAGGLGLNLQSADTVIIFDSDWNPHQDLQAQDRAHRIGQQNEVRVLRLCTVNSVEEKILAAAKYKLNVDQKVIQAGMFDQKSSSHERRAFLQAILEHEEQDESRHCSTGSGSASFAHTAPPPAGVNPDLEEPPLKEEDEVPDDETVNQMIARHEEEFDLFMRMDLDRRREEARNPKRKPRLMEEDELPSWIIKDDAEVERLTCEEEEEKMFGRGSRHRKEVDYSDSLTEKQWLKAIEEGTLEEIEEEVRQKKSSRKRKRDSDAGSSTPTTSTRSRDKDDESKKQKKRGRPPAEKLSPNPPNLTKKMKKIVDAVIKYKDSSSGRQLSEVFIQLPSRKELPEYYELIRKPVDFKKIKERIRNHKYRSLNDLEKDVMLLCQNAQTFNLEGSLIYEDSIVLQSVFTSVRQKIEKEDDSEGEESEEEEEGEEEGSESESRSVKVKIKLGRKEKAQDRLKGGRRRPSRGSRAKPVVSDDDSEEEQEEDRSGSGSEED
T2 sequence (P51531 whole entry, the tested form may be a part): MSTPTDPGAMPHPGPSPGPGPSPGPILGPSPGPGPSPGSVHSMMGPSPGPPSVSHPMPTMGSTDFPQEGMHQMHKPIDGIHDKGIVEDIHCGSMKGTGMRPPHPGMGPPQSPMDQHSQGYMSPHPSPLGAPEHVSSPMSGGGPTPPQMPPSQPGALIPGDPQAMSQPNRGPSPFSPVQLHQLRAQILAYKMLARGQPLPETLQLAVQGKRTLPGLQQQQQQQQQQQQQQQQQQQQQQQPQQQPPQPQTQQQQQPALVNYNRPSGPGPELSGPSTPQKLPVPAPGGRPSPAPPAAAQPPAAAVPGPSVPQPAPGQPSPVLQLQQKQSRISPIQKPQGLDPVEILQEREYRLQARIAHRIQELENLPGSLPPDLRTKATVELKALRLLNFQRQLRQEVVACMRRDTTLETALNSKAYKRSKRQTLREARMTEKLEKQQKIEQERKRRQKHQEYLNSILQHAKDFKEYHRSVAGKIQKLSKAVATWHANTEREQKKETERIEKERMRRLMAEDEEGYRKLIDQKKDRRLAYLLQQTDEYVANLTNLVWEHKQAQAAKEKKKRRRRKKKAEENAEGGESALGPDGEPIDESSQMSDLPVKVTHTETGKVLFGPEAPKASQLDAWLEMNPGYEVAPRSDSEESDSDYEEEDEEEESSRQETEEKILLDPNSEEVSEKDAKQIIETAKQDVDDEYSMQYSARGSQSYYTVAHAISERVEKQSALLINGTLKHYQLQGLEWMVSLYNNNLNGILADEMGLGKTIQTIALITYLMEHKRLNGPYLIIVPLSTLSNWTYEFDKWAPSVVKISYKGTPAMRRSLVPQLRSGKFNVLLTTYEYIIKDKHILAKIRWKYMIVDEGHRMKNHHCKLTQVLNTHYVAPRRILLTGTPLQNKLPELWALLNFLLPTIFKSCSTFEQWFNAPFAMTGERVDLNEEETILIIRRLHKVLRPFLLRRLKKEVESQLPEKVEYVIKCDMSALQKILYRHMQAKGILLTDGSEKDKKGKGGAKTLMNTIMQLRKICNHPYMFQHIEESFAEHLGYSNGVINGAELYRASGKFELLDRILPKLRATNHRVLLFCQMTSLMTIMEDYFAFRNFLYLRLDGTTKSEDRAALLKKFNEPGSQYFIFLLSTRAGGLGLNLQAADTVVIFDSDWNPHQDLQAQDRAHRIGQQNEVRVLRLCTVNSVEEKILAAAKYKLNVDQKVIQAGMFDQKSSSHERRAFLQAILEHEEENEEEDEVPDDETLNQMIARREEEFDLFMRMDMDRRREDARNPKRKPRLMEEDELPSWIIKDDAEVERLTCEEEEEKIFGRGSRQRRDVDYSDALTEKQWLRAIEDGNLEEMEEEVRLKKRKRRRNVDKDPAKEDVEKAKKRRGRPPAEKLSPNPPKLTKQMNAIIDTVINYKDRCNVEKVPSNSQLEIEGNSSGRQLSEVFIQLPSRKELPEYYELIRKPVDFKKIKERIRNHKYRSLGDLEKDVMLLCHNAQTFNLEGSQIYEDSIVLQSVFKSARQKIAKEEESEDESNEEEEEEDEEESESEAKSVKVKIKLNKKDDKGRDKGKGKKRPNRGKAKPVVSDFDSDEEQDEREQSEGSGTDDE

| Compound | Dmax [1] [%] | DC50 [1] [µM] | BRM HiBit Degradation Maximum (%) (HiBit-BRM fusion protein) | DC50 (HiBit-BRM fusion protein) [µM] |
| --- | --- | --- | --- | --- |
| Cc1ncsc1-c1ccc([C@H](C)NC(=O)[C@@H]2C[C@@H](O)CN2C(=O)[C@@H](c2cc(N3CCN(C(=O)CN4CC(c5cc6cc(-c7ccccc7O)nnc6[nH]5)C4)CC3)no2)C(C)C)cc1 (racemic) [Compound 269, (2S,4R)-4-hydroxy-1-((R)-2-(3-(4-(2-(3-(3-(2-hydroxyphenyl)-7H-pyrrolo[2,3-c]pyridazin-6-yl)azetidin-1-yl)acetyl)piperazin-1-yl)isoxazol-5-yl)-3-methylbutanoyl)-N-((S)-1-(4-(4-methylthiazol-5-yl)phenyl)ethyl)pyrrolidine-2-carboxamide] | > 75 | > 0.1 | A (“A” indicates maximum degradation ≥ 75%) | > 0.01 |
| Cc1ncsc1-c1ccc([C@H](C)NC(=O)[C@@H]2C[C@@H](O)CN2C(=O)[C@@H](c2cc(OCCN3CCC(c4[nH]c5nnc(-c6ccccc6O)cc5c4C)CC3)no2)C(C)C)cc1 (racemic) [Compound 270, (2S,4R)-4-hydroxy-1-[(2R)-2-[3-(2-{4-[3-(2-hydroxyphenyl)-5-methyl-7H-pyrrolo[2,3-c]pyridazin-6-yl]piperidin-1-yl}ethoxy)-1,2-oxazol-5-yl]-3-methylbutanoyl]-N-[(1S)-1-[4-(4-methyl-1,3-thiazol-5-yl)phenyl]ethyl]pyrrolidine-2-carboxamide] | > 75 | > 0.01 | A (“A” indicates maximum degradation ≥ 75%) | < 0.01 |
| Cc1ncsc1-c1ccc([C@H](C)NC(=O)[C@@H]2C[C@@H](O)CN2C(=O)[C@@H](c2cc(OCCN3CCC(N4CC(c5[nH]c6nnc(-c7ccccc7O)cc6c5C)C4)CC3)no2)C(C)C)cc1 (racemic) [Compound 271, (2S,4R)-4-hydroxy-1-((R)-2-(3-(2-(4-(3-(3-(2-hydroxyphenyl)-5-methyl-7H-pyrrolo[2,3-c]pyridazin-6-yl)azetidin-1-yl)piperidin-1-yl)ethoxy)isoxazol-5-yl)-3-methylbutanoyl)-N-((S)-1-(4-(4-methylthiazol-5-yl)phenyl)ethyl)pyrrolidine-2-carboxamide] | > 75 | > 0.01 | A (“A” indicates maximum degradation ≥ 75%) | < 0.01 |
| Cc1ncsc1-c1ccc([C@H](C)NC(=O)[C@@H]2C[C@@H](O)CN2C(=O)C(c2cc(N3CCC(C(=O)N4CC(c5cc6cc(-c7ccccc7O)nnc6[nH]5)C4)CC3)no2)C(C)C)cc1 (mixture of isomers) [Compound 274, (2S,4R)-4-hydroxy-1-((S)-2-(3-(4-(3-(3-(2-hydroxyphenyl)-7H-pyrrolo[2,3-c]pyridazin-6-yl)azetidine-1-carbonyl)piperidin-1-yl)isoxazol-5-yl)-3-methylbutanoyl)-N-((S)-1-(4-(4-methylthiazol-5-yl)phenyl)ethyl)pyrrolidine-2-carboxamide] | > 75 | > 0.1 | A (“A” indicates maximum degradation ≥ 75%) | > 0.01 |
| Cc1ncsc1-c1ccc([C@H](C)NC(=O)[C@@H]2C[C@@H](O)CN2C(=O)[C@@H](c2cc(OCCN3CC(C)(c4cc5cc(-c6ccccc6O)nnc5[nH]4)C3)no2)C(C)C)cc1 (racemic) [Compound 275, (2S,4R)-4-hydroxy-1-((R)-2-(3-(2-(3-(3-(2-hydroxyphenyl)-7H-pyrrolo[2,3-c]pyridazin-6-yl)-3-methylazetidin-1-yl)ethoxy)isoxazol-5-yl)-3-methylbutanoyl)-N-((S)-1-(4-(4-methylthiazol-5-yl)phenyl)ethyl)pyrrolidine-2-carboxamide] | < 50 | – | A (“A” indicates maximum degradation ≥ 75%) | > 0.01 |
| Cc1ncsc1-c1ccc([C@H](C)NC(=O)[C@@H]2C[C@@H](O)CN2C(=O)[C@@H](c2cc(OCCN3CCC(C)(c4cc5cc(-c6ccccc6O)nnc5[nH]4)CC3)no2)C(C)C)cc1 (racemic) [Compound 276, (2S,4R)-4-hydroxy-1-((R)-2-(3-(2-(4-(3-(2-hydroxyphenyl)-7H-pyrrolo[2,3-c]pyridazin-6-yl)-4-methylpiperidin-1-yl)ethoxy)isoxazol-5-yl)-3-methylbutanoyl)-N-((S)-1-(4-(4-methylthiazol-5-yl)phenyl)ethyl)pyrrolidine-2-carboxamide] | > 50 | > 1 | A (“A” indicates maximum degradation ≥ 75%) | > 0.01 |
| Cc1ncsc1-c1ccc([C@H](C)NC(=O)[C@@H]2C[C@@H](O)CN2C(=O)[C@@H](c2cc(OCCN3CCC(O)(c4cc5cc(-c6ccccc6O)nnc5[nH]4)CC3)no2)C(C)C)cc1 (racemic) [Compound 277, (2S,4R)-4-hydroxy-1-((R)-2-(3-(2-(4-hydroxy-4-(3-(2-hydroxyphenyl)-7H-pyrrolo[2,3-c]pyridazin-6-yl)piperidin-1-yl)ethoxy)isoxazol-5-yl)-3-methylbutanoyl)-N-((S)-1-(4-(4-methylthiazol-5-yl)phenyl)ethyl)pyrrolidine-2-carboxamide] | < 50 | – | A (“A” indicates maximum degradation ≥ 75%) | > 0.1 |
| Cc1ncsc1-c1ccc([C@H](C)NC(=O)[C@@H]2C[C@@H](O)CN2C(=O)[C@@H](c2cc(OCCN3CCC[C@H](c4cc5cc(-c6ccccc6O)nnc5[nH]4)C3)no2)C(C)C)cc1 (racemic) [Compound 278, (2S,4R)-4-hydroxy-1-((R)-2-(3-(2-((S)-3-(3-(2-hydroxyphenyl)-7H-pyrrolo[2,3-c]pyridazin-6-yl)piperidin-1-yl)ethoxy)isoxazol-5-yl)-3-methylbutanoyl)-N-((S)-1-(4-(4-methylthiazol-5-yl)phenyl)ethyl)pyrrolidine-2-carboxamide] | > 50 | > 0.01 | A (“A” indicates maximum degradation ≥ 75%) | > 0.01 |
| Cc1ncsc1-c1ccc([C@H](C)NC(=O)[C@@H]2C[C@@H](O)CN2C(=O)[C@@H](c2cc(OCCN3CCC[C@@H](c4cc5cc(-c6ccccc6O)nnc5[nH]4)C3)no2)C(C)C)cc1 (racemic) [Compound 279, (2S,4R)-4-hydroxy-1-((R)-2-(3-(2-((R)-3-(3-(2-hydroxyphenyl)-7H-pyrrolo[2,3-c]pyridazin-6-yl)piperidin-1-yl)ethoxy)isoxazol-5-yl)-3-methylbutanoyl)-N-((S)-1-(4-(4-methylthiazol-5-yl)phenyl)ethyl)pyrrolidine-2-carboxamide] | < 50 | – | A (“A” indicates maximum degradation ≥ 75%) | > 0.01 |
| Cc1ncsc1-c1ccc([C@H](C)NC(=O)[C@@H]2C[C@@H](O)CN2C(=O)[C@@H](c2cc(OCCN3CC[C@H](c4cc5cc(-c6ccccc6O)nnc5[nH]4)C3)no2)C(C)C)cc1 (racemic) [Compound 280, (2S,4R)-4-hydroxy-1-((R)-2-(3-(2-((S)-3-(3-(2-hydroxyphenyl)-7H-pyrrolo[2,3-c]pyridazin-6-yl)pyrrolidin-1-yl)ethoxy)isoxazol-5-yl)-3-methylbutanoyl)-N-((S)-1-(4-(4-methylthiazol-5-yl)phenyl)ethyl)pyrrolidine-2-carboxamide] | < 50 | – | A (“A” indicates maximum degradation ≥ 75%) | > 0.01 |
| Cc1ncsc1-c1ccc([C@H](C)NC(=O)[C@@H]2C[C@@H](O)CN2C(=O)[C@@H](c2cc(OCCN3CCC(c4c[nH]c5nnc(-c6ccccc6O)cc45)CC3)no2)C(C)C)cc1 (racemic) [Compound 282, (2S,4R)-4-hydroxy-1-((R)-2-(3-(2-(4-(3-(2-hydroxyphenyl)-7H-pyrrolo[2,3-c]pyridazin-5-yl)piperidin-1-yl)ethoxy)isoxazol-5-yl)-3-methylbutanoyl)-N-((S)-1-(4-(4-methylthiazol-5-yl)phenyl)ethyl)pyrrolidine-2-carboxamide] | < 50 | – | A (“A” indicates maximum degradation ≥ 75%) | > 0.01 |
| Cc1ncsc1-c1ccc([C@H](C)NC(=O)[C@@H]2C[C@@H](O)CN2C(=O)[C@@H](c2cc(OCCN3CCC[C@@H](c4c[nH]c5nnc(-c6ccccc6O)cc45)C3)no2)C(C)C)cc1 (racemic) [Compound 283, (2S,4R)-4-hydroxy-1-((R)-2-(3-(2-((S)-3-(3-(2-hydroxyphenyl)-7H-pyrrolo[2,3-c]pyridazin-5-yl)piperidin-1-yl)ethoxy)isoxazol-5-yl)-3-methylbutanoyl)-N-((S)-1-(4-(4-methylthiazol-5-yl)phenyl)ethyl)pyrrolidine-2-carboxamide] | < 50 | – | B (“B” indicates maximum degradation ≥ 50%) | > 0.01 |
| Cc1ncsc1-c1ccc([C@H](C)NC(=O)[C@@H]2C[C@@H](O)CN2C(=O)[C@@H](c2cc(OCCN(C)Cc3ccc(Cc4cc5cc(-c6ccccc6O)nnc5[nH]4)cc3)no2)C(C)C)cc1 (racemic) [Compound 284] | > 75 | > 0.1 | A (“A” indicates maximum degradation ≥ 75%) | > 0.01 |
| Cc1ncsc1-c1ccc([C@H](C)NC(=O)[C@@H]2C[C@@H](O)CN2C(=O)[C@@H](c2cc(OCCN3CCC(F)(c4cc5cc(-c6ccccc6O)nnc5[nH]4)CC3)no2)C(C)C)cc1 (racemic) [Compound 285, (2S,4R)-1-((R)-2-(3-(2-(4-fluoro-4-(3-(2-hydroxyphenyl)-7H-pyrrolo[2,3-c]pyridazin-6-yl)piperidin-1-yl)ethoxy)isoxazol-5-yl)-3-methylbutanoyl)-4-hydroxy-N-((S)-1-(4-(4-methylthiazol-5-yl)phenyl)ethyl)pyrrolidine-2-carboxamide] | > 50 | > 0.1 | A (“A” indicates maximum degradation ≥ 75%) | > 0.1 |
